Key:
Format in all cases: binding
[1] = target: T1, N-terminal CRD of hGalectin-4 (Gal-4N) (Homo sapiens, UniProt P56470); assay: Isothermal titration calorimetry (ITC)
T1 construct: N-terminal CRD of hGalectin-4 (amino acids 1–150, including an additional C-terminus His-Tag); His-Tag (C, cleaved yes); made in house; host or cells: E. coli BL21 (pET29b)
T1 sequence (P56470 1-150): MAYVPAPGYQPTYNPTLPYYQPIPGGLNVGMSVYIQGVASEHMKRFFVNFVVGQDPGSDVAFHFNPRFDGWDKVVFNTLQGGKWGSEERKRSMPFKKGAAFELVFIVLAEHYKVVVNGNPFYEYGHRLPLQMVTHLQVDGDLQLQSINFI
Protocol: Isothermal titration calorimetry experiments were performed using the MicroCal PEAQ-ITC calorimeter (Malvern Panalytical, Malvern, United Kingdom). Samples containing 100–200 μM of Gal-4N in PBS (50 mM sodium phosphate, pH 7.4, 300 mM NaCl) were titrated with stocks of 3–10 mM in PBS of glycans 4, 5, 7, 8, 9, and 11. During the automated experiment, small aliquots (2–3 μL) of the sugar stocks were added to the cell containing the lectin. Curve fitting to a single binding site model was performed with the MicroCal Origin 7 software.
Isothermal titratrion calorimetry (ITC). Isothermal Titration Calorimetry experiments were performed using MicroCal PEAQ-ITC calorimeter. Samples containing 100-200 µM of Gal-4N in PBS (50 mM sodium phosphate pH 7.4, 300 mM NaCl) were titrated with stocks of 3-10 mM in PBS of glycans A type 1, A type 2, A type 6, B type 1, B type 2 and B type 6. During the automated experiment, small aliquots (2-3 µL) of the sugar stocks were added to the cell containing the lectin. The association constants and the thermodynamic profile of the binding was calculated from the fitting of the titration data to a single binding site model.

[2] = target: T1, N-terminal CRD of hGalectin-4 (Gal-4N); assay: 1H Saturation Transfer Difference (STD) NMR epitope mapping
Protocol: ^1H-saturation transfer difference NMR spectra were acquired for mixtures of Gal-4N (50 μM) with a 50-fold excess of ligand. Protein aromatic irradiation afforded the best STD intensities and thus these are discussed henceforth. The STD NMR spectra were very similar among the different ligands with respect to both the observed glycan protons and their intensities. […] Severe proton overlapping precluded a full comparison among ligands, but key isolated ^1H NMR resonance signals permitted to highlight evident differences.
All the STD NMR experiments were performed using an 800 MHz Bruker spectrometer with a cryoprobe (Bruker, Billerica, MA, United States). The samples were prepared in the corresponding deuterated buffer. The temperature was 288 K for every experiment. An amount of 50 μM of the lectin with 50 equivalents of the ligand was employed for every experiment except for lactose, for which a 1:70 ratio was used. The STD spectra were acquired with 1,024 scans, 2 s of saturation time using a train of 50 ms Gaussian-shaped pulses, and 3 s of relaxation delay. The spin-lock filter applied to remove the signals of the lectin was set at 40 ms. The on-resonance frequency was set for the aromatic region at 6.58 ppm, while the off-resonance frequency was set at 100 ppm.
Supplementary Table S1. Relative STD-AF (Amplification factor) and STD percentage of each non overlapping proton of each ligand.

[3] = target: T1, N-terminal CRD of hGalectin-4 (Gal-4N); assay: 1H-15N HSQC NMR-based titrations (chemical shift perturbation) of 15N-labeled Gal-4N; conditions: HSQC NMR-based titration, 50 μM 15N-labeled lectin, 298 K; read-out: KD (μM) (NMR)
Protocol: The molecular recognition event was also analyzed from the perspective of the lectin. Thus, a chemical shift perturbation (CSP) analysis of the changes produced in the ^1H-^15N HSQC spectra recorded for ^15N-labeled Gal-4N upon addition of the different ligands was carried out. This analysis required the NH backbone NMR assignment of the lectin signals, following well-established triple resonance 3D NMR methods (see Materials and methods and Supplementary Information). The assignment protocol allowed assigning 80% of the NH backbone resonances. In addition to the ligands shown in Scheme 1, the corresponding non-fucosylated analogs and the H antigens (devoid of the terminal Gal/GalNAc moieties, see Supplementary Information), as well as lactose, were also employed. Thus, a full comparative analysis on the monosaccharide-specific effects on the lectin CSP was achieved.
The total volume for the NMR samples was 500/μl. The lectin was in phosphate-buffered saline (50 mM sodium phosphate, 150 mM NaCl, pH 7.4), either in D2O or 90:10 H2O:D2O depending on the NMR experiment. The pH was adjusted with the required amount of NaOH and HCl or NaOD and DCl.
experiments were acquired using an 800 MHz Bruker spectrometer with a cryoprobe (Bruker, Billerica, MA, United States). The samples were prepared using 50 μM of the ^15N-labeled lectin in the corresponding buffer in a 90:10 H2O:D2O ratio. The experiments were performed at 298 K. Six to nine points were recorded for each ligand and CSP and KD were calculated using CcpNmr Analysis 2.4.2.

[4] = 1H-residue H4GalNAc (terminal, A type 6)

CC(=O)NC1C(OC2C(O)C(CO)OC(OC3C(CO)OC(O)C(O)C3O)C2OC2OC(C)C(O)C(O)C2O)OC(CO)C(O)C1O (stereo not drawn) [A type-6 (tetra)]
-TΔS (kcal mol^–1) (ITC) [1]: 2.9 kcal mol^–1
ΔG (kcal mol^–1) (ITC) [1]: −5.6 kcal mol^–1
ΔH (kcal mol^–1) (ITC) [1]: −8.5 kcal mol^–1
increased affinity of type-6 vs corresponding type-2 antigen ([1]; Glc vs GlcNAc at reducing end, β1–4 linked): two-fold
Kd ([1]; PBS pH 7.4, single binding site model): 86 µM
STD% ([2]; 1H-residue H1 Fuc): 13%
STD-AF ([2]; 1H-residue H1 Fuc): 0.0020
STD% ([2]; 1H-residue H1GalNAc): 82%
STD-AF ([2]; 1H-residue H1GalNAc, 50:1 ligand:lectin, 288 K): 0.0129
STD% ([2]; 1H-residue H1Galβ): 58%
STD-AF ([2]; 1H-residue H1Galβ): 0.0091
STD% ([2]; 1H-residue H1Glca): 21%
STD-AF ([2]; 1H-residue H1Glca): 0.0033
STD% ([2]; 1H-residue H1Glcb): 18%
STD-AF ([2]; 1H-residue H1Glcb): 0.0028
STD% ([2]; 1H-residue H2GalNAc): 51%
STD-AF ([2]; 1H-residue H2GalNAc): 0.0081
STD% ([2]; 1H-residue H2Glca / H2Glcα): 34%
STD-AF ([2]; 1H-residue H2Glca / H2Glcα): 0.0054
STD% ([2]; 1H-residue H2Glcb / H2Glcβ): 30%
STD-AF ([2]; 1H-residue H2Glcb / H2Glcβ): 0.0048
STD% ([2]; 1H-residue H3Galβ): 39%
STD-AF ([2]; 1H-residue H3Galβ): 0.0061
STD% ([2]; 1H-residue H3Glcb / H3Glcβ): 32%
STD-AF ([2]; 1H-residue H3Glcb / H3Glcβ): 0.0050
STD% [2, 4]: 16%
STD-AF [2, 4]: 0.0025
STD% ([2]; 1H-residue H4Galβ): 60%
STD-AF ([2]; 1H-residue H4Galβ): 0.0095
STD% ([2]; 1H-residue H5Galβ): 100%
STD-AF ([2]; 1H-residue H5Galβ): 0.0158
STD% ([2]; 1H-residue MetFuc): 10%
STD-AF ([2]; 1H-residue MetFuc): 0.0016
STD% ([2]; 1H-residue NHAc GalNAc): 100%
STD-AF ([2]; 1H-residue NHAc GalNAc): 0.0158
Kd [3]: 150 µM
